Data taken from PubChem BioAssay (NCI).
Where “and” joins values, the source holds several entries; their conditions need not be identical. Equal values may be shown once.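 Results reflect a 48-hour exposure of cells in 96-well plates to compound at five concentrations. GI50 marks 50% less growth. TGI is the concentration that stops growth completely.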

Columns and labels:
Experiment in all cases: growth of human tumour cells (NCI), 48 h
BT-549 breast = test system: BT-549 breast
CCRF-CEM leukemia = test system: CCRF-CEM leukemia
HCT-116 colon = test system: HCT-116 colon
HT29 colon = test system: HT29 colon
IGROV1 ovarian = test system: IGROV1 ovarian
KM12 colon = test system: KM12 colon
MCF7 breast = test system: MCF7 breast
MDA-N = test system: MDA-N
NCI-H226 lung = test system: NCI-H226 lung
NCI-H522 lung = test system: NCI-H522 lung
OVCAR-3 ovarian = test system: OVCAR-3 ovarian
OVCAR-8 ovarian = test system: OVCAR-8 ovarian
PC-3 prostate = test system: PC-3 prostate
SF-268 CNS = test system: SF-268 CNS
SR leukemia = test system: SR leukemia
SW-620 colon = test system: SW-620 colon
T-47D breast = test system: T-47D breast
U251 CNS = test system: U251 CNS
UACC-62 melanoma = test system: UACC-62 melanoma

| Structure (SMILES) | TGI (BT-549 breast) [µM] | TGI (CCRF-CEM leukemia) [µM] | TGI (HCT-116 colon) [µM] | TGI (HT29 colon) [µM] | TGI (IGROV1 ovarian) [µM] | TGI (KM12 colon) | TGI (MCF7 breast) [µM] | TGI (MDA-N) [µM] | TGI (NCI-H226 lung) [µM] | TGI (NCI-H522 lung) [µM] | TGI (OVCAR-3 ovarian) [µM] | TGI (OVCAR-8 ovarian) [µM] | TGI (PC-3 prostate) [µM] | TGI (SF-268 CNS) [µM] | TGI (SR leukemia) [µM] | TGI (SW-620 colon) [µM] | TGI (T-47D breast) [µM] | TGI (U251 CNS) [µM] | TGI (UACC-62 melanoma) [µM] | GI50 (KM12 colon) |
| --- | --- | --- | --- | --- | --- | --- | --- | --- | --- | --- | --- | --- | --- | --- | --- | --- | --- | --- | --- | --- |
| COc1cc(C[C@H]2C(=O)OC[C@@H]2Cc2ccc(OC)c(OC)c2)cc(OC)c1 | > 100 | > 100 | > 100 | > 100 | > 100 | > 100 µM | > 100 | > 100 | > 100 | > 100 | > 100 | > 100 | > 100 | > 100 | > 100 | > 100 | > 100 | > 100 | > 100 |  |
| O=C(N/N=C/c1ccc([N+](=O)[O-])cc1)c1cccc2nc3ccccc3nc12 | > 100 | > 100 | > 100 | > 100 | > 100 | > 100 µM | > 100 | > 100 | > 100 | > 100 | > 100 | > 100 | > 100 | > 100 | > 64.7 | > 100 | > 100 | > 100 | > 100 |  |
| Cc1cnc(/N=c2\sc(C)cn2-c2ncc(C)s2)s1 | > 100 | > 100 | > 100 | > 100 | > 100 | > 100 µM | > 100 | > 100 | > 100 | > 100 | > 100 | > 100 | > 100 | > 100 | > 100 | > 100 | > 100 | > 100 | > 100 |  |
| C=CCOc1ccc(/C(N=Nc2ccccc2)=N/NC(=O)c2ccccc2)cc1OC | > 100 | > 100 | > 100 | > 100 | > 100 | > 100 µM | > 100 | > 100 | > 100 | > 100 | > 100 | > 100 | > 100 | > 100 | > 100 | > 100 | > 100 | > 100 | > 100 |  |
| O=c1[nH]/c(=C/c2ccc(OCc3ccccc3)cn2)c(=O)[nH]/c1=C/c1ccc(Cl)cc1 | > 100 | > 100 | > 100 | > 100 | > 100 | > 100 µM | > 100 | 0.723 | > 100 | > 84.9 | 2.45 | > 100 | > 100 | > 52.4 | 4.53 | > 100 | > 100 | > 100 | > 100 |  |
| CCOP(=O)(OCC)/C(C#N)=C/c1ccc(-c2ccc(F)cc2F)o1 | 24.5 | 38.7 | 32.3 | 33.1 | 34.6 | 31.6 µM | 43 | 48.7 | 36 | 37 | 30.1 | 33.2 | 24.2 | 44.3 | 33.2 | 38.5 | 8.35 | 32.6 | 23.4 |  |
| CC(=O)OC1COC(n2nc(/C=C/c3ccc(Cl)cc3)c(=O)n(/N=C/c3ccccc3)c2=S)C(OC(C)=O)C1OC(C)=O (centres undefined) | > 100 | > 100 | > 100 | > 100 | > 100 | > 100 µM | > 100 | > 100 | > 100 | > 100 | > 100 | > 100 | > 100 | > 100 | > 100 | > 100 | > 100 | > 100 | > 100 |  |
| OCC1OC(NCCNCCNC2OC(CO)C(O)C(O)C2O)C(O)C(O)C1O (centres undefined) | > 100 | > 100 | > 100 | > 100 | > 100 | 22.5 µM and > 100 µM | > 100 | > 100 | > 100 | > 100 | > 100 | > 100 | > 100 | > 100 | > 100 | > 100 | > 100 | > 100 | > 100 | 10.4 µM and 43.3 µM and > 100 µM |
| COc1cc(/C=C/C(=O)OC2C(O)C3CC(OC(=O)c4cc(OC)c(OC)c(OC)c4)CC2N3C)cc(OC)c1OC (centres undefined) | > 50 | > 50 | > 50 | > 50 | 39.8 | > 50 µM | > 50 | > 50 | > 50 | > 50 | > 50 | > 50 | > 50 | > 50 | 33.3 | > 50 | 43.7 | > 50 | > 50 |  |
| c1ccc(-c2ccc(-c3cc4ccccc4[nH]3)cc2)cc1 | > 100 | > 100 | > 100 | > 100 | > 100 | > 100 µM | > 100 | > 100 | > 100 | > 100 | > 100 | > 100 | > 100 | > 100 | > 100 | > 100 | > 100 | > 100 | > 100 |  |
| COc1ccc(C2C3CCc4ccccc4C3=NN2S(=O)(=O)c2ccc(Cl)cc2)cc1 (centres undefined) | > 100 | > 100 | > 100 | 63.3 | 52.9 | > 100 µM | 34.8 | 9.19 | > 100 | 37.6 | > 100 | > 100 | > 100 | > 100 | 25.4 | > 100 | > 100 | 60.8 | > 100 |  |
| COc1cc(Cn2c(=S)ss/c2=N\C(=S)N(C)C)cc(OC)c1OC | > 100 | > 77.5 | > 70.7 | > 100 | > 96 | 30.5 µM | > 100 | 3.01 | > 71 | 15.7 | 13.6 | > 70.9 | > 100 | > 75.7 | > 61.2 | > 100 | > 100 | > 82 | 58.6 |  |
